Assay results published in patent US4797406A, “Amides and esters containing bridged piperidines and use as serotonin M antagonists” (Sandoz Ltd., priority 1983, dated 1989).

Columns and labels:
[1] = target: T1, M receptors for serotonin (Oryctolagus cuniculus, UniProt A0A5F9C9J3); conditions: isolated rabbit vagus nerve; known serotonin D receptor antagonists; cited from earlier work
T1 construct: isolated rabbit vagus nerve; from tissue; host or cells: isolated rabbit vagus nerve
T1 sequence (A0A5F9C9J3 1-494): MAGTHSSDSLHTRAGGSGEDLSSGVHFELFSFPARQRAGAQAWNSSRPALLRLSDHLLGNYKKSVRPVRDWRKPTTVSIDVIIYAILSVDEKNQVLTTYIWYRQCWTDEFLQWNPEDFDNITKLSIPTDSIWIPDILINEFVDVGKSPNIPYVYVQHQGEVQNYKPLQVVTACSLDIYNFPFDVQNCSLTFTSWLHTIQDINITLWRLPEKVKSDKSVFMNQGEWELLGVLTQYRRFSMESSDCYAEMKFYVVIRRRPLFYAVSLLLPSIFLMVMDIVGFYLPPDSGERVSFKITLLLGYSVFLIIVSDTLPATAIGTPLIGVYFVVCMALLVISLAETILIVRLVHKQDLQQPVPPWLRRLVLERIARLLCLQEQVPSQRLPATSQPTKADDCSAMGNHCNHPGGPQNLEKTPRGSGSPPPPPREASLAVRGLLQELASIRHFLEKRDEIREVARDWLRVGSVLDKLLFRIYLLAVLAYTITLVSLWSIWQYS

serotonin M receptor = conditions: human volunteers, forearm blister; serotonin D receptor antagonists; cited from earlier work
[2] = target: T1, M receptors for serotonin; assay: isolated rabbit vagus nerve test (serotonin reduction of C fibre compound action potential); conditions: antagonism of serotonin on C fibre action potential, read-out: pA2 in the vagus nerve test (converted)
Excerpt: For example, in one test the action of the compounds in inhibiting the action of serotonin in reducing the amplitude of the compound action potential from the isolated rabbit vagus nerve was observed according to the principles of Riccioppo Neto, European Journal of Pharmacology (1978) 49 351-356, under conditions permitting differentation between action potentials generated in myelinatd nerve fibres (A fibres) and those generated in small non-myelinated fibres (C fibres) as described by B. Oakley and R. Schater, Experimental Neurobiology, A Laboratory Manual, University of Michigan Press, 1978, p.85 to 96. Serotonin itself exerts its effect selectively on the C-fibres progressively with dosage. This action of serotonin is not blocked by the known serotonin antagonists, metitepine, methysergide, BOL - 148, which have been said to block D receptors for serotonin, but not M receptors (see Gaddam and Picarlli, Brit.J.Pharmacol. (1957), 12, 323-328). It therefore appears that serotonin reduces the amplitude of the action potential carried by the C fibres through an effect mediated by M receptors for serotonin which are located on these nerve fibres.
The test may be effected by establishing a dose response curve for serotonin (10^-7 -5×10^-6 M) after setting up the nerve. […]

migraine attack = conditions: slow i.v. injection of 10 mg; reported by J. B. Hughes 1977; cited from earlier work

Q: With `CC[C@@H](CO)NC(=O)[C@@H]1C=C2c3cccc4c3c(cn4C)C[C@H]2N(C)C1` [methysergide] as the compound, how does the “block of the action of serotonin on the C fibre action potential” value (shortened to “block of the action of serotonin”) [1] read?
A: not blocked

Q: For `CCN(CC)C(=O)[C@@H]1C=C2c3cccc4[nH]cc(c34)C[C@H]2N(C)C1` [lysergic acid diethylamide], which “inhibition of the algesic action of serotonin on the blister base” value (serotonin M receptor) is on record?
A: not inhibited

Q: With `CN1C[C@H]2CCC[C@@H](C1)[C@@H]2OC(=O)c1c[nH]c2ccccc12` [Example 2] as the compound, how does the Kb [2] read?
A: 6.31 nM

Q: With `CCN(CC)CCNC(=O)c1cc(Cl)c(N)cc1OC` [metoclopramide, Metoclopramide] as the compound, how does the Kb [2] read?
A: 50.1 nM

Q: What about the “effect on a migraine attack” value (migraine attack) of the same compound?
A: immediate effect

Q: Which “block of the action of serotonin” value [1] does the source give for `CCN(CC)C(=O)[C@@H]1C=C2c3cccc4[nH]c(Br)c(c34)C[C@H]2N(C)C1` [BOL - 148] here?
A: not blocked

Q: What about the “inhibition of the algesic action of serotonin on the blister base” value (serotonin M receptor) of the same compound?
A: not inhibited

Q: For `CSc1ccc2c(c1)C(N1CCN(C)CC1)Cc1ccccc1S2` (centres unmarked) [metitepine], which “block of the action of serotonin” value [1] is on record?
A: not blocked
